Data from US10501454B2, “Monocyclic β-lactam-siderophore conjugate, and preparation method and use thereof” (Shanghai Institute of Materia Medica, Chinese Academy of …, priority 2016, dated 2019).
Where a name gives a salt, the structure may show the parent alone.

Columns and labels:
[1] = tested on: Pseudomonas aeruginosa (4 strains); test: MIC, broth microdilution, iron-deficient MH medium; type: cell-based; conditions: Pseudomonas aeruginosa; iron-deficient MH medium (16 mg/L 2,2'-bipyridine); multidrug-resistant clinical isolates (integrator I, IMP4); read-out: Antibacterial activity MIC, Pseudomonas aeruginosa (4 strains)
Experimental: (§1) Supplier of the strains: all of the above strains were provided by Sichuan Primed Shines Bio-tech Co., Ltd. A single colony was isolated by streaking on agar plates for each strain prior to the experiment, and the cells freshly cultured at 37° C. overnight were appropriately diluted for the experiment.
(§2) Medium: MH liquid medium (OXOID).
(§3) Culture condition: cells were incubated at 35-37° C. for 16-18 h.
(§4) The broth microdilution method recommended by Clinical and Laboratory Standards Institute (CLSI), Performance Standards for Antimicrobial Susceptibility Testing; Twenty-Third Informational Supplement, M02-All, M07-A9 and M11-A8, 2013 was used to determine the MIC value of each test sample against each test strain in the normal MH medium and iron-deficient MH medium.
(§5) BPL was added to the normal MH medium to obtain a final concentration of 16 mg/L; According to the method in Section 1.2.1, 100 μl of each test sample solution at different concentrations was aspirated to the 1st to 10th well in a 96-well sterile polystyrene plate to obtain the final drug concentrations of 16, 8, 4, 2, 1, 0.5, 0.25, 0.125, 0.06, and 0.03 mg/L, respectively. Then, 100 μl of the test bacterial liquid was added to each well (200 μl per well), and the final concentration of the bacterial liquid was approximately 10^4 CFU/ml. After sealing, it was placed in a 35-37° C. incubator for 18-20 hours for testing the result. The OD600 value was measured by a microplate reader, Minimal Inhibitory Concentration (MIC) of a drug is the lowest concentration of the drug which prevents growth of bacteria in the wells.

[2] = tested on: Klebsiella pneumoniae (4 strains); test: MIC, broth microdilution, iron-deficient MH medium; type: cell-based
Experimental: as §1, §2, §3, §4, §5

[3] = tested on: Escherichia coli (4 strains); test: MIC, broth microdilution, iron-deficient MH medium; type: cell-based; conditions: Escherichia coli; iron-deficient MH medium (16 mg/L 2,2'-bipyridine); clinical isolates (ESBLs); read-out: Antibacterial activity MIC, Escherichia coli (4 strains)
Experimental: as §1, §2, §3, §4, §5

[4] = tested on: Acinetobacter baumannii (4 strains); test: MIC, broth microdilution, iron-deficient MH medium; type: cell-based; conditions: Acinetobacter baumannii; iron-deficient MH medium (16 mg/L 2,2'-bipyridine); multidrug-resistant clinical isolates (integron I, OXA23); read-out: Antibacterial activity MIC, Acinetobacter baumannii (4 strains)
Experimental: as §1, §2, §3, §4, §5

[5] = tested on: Klebsiella pneumoniae (4 strains); test: MIC, broth microdilution, normal MH medium; type: cell-based
Experimental: as §1, §2, §3, §4
After diluting each sample to different concentrations with normal MH medium, 100 μl of each test sample solution at different concentrations was separately aspirated onto a 96-well sterile polystyrene plate. Drug solutions were added to the 1st to 10th well with the final concentrations of 16, 8, 4, 2, 1, 0.5, 0.25, 0.125, 0.06, and 0.03 mg/L in each well, respectively. The 11th well, as a blank control, was not added with drugs and bacteria. The 12th well, as a bacterial growth control, was added with bacteria but no drug.
The OD600 value was measured by a microplate reader, Minimal Inhibitory Concentration (MIC) of a drug is the lowest concentration of the drug which prevents growth of bacteria in the wells. 1.2.2 MIC in iron-deficient MH medium

[6] = tested on: Escherichia coli ECO-14-4 (ESBLs); test: In vivo efficacy in mice systemically infected with Escherichia coli ECO-14-4 (ESBLs); conditions: Escherichia coli; Kunming mice, intraperitoneal infection, drug s.c. 0.5 h and 4 h after infection, deaths over 7 days, Bliss method; read-out: ED50 Subcutaneous injection
Experimental: 3.1 Test strains: Clinically isolated pathogenic Escherichia coli ECO-14-4 (ESBLs), supplied by Sichuan Primed Shines Bio-tech Co., Ltd.
3.2 Test animals: Kunming mice, age: 4 to 5 weeks, weight: 18 to 22 g, half male, half female, SPF grade.
3.3 Test methods: Mice were randomly divided into several groups, 5 mice for each group, half male and half female, and 5 doses for each test drug: 1.25, 2.5, 5, 10 and 20 mg/kg. The mice were intraperitoneally injected with 0.5 mL of […] CFU/mL bacterial suspension for each mouse, and subcutaneously injected with the drug at the designed dose 0.5 h and 4 h after infection. The subcutaneous injection volume was 0.2 ml/20 g mouse weight; the number of deaths in mice was observed and recorded for 7 consecutive days. According to the number of deaths in mice, the half effective dose ED50 was calculated according to the Bliss method using the DAS 1.0 software, edited by Sun Ruiyuan et al.

[7] = Pharmacokinetic test in rats, intravenous; type: in vivo; conditions: SD rats, intravenous 1.0 mg/kg, plasma
Experimental: 2.1.2 Test animals: 6 SD rats, male, weight: 200-220 g.
2.1.3 Drug Preparation: an appropriate amount of the sample was weighed and prepared into a 0.2 mg/mL solution with water for injection.
2.1.4 Administration of the drug: 6 SD rats, male, weight: 200-220 g, were randomly divided into two groups, 3 rats in each group. […] The intravenous dose was 1.0 mg/kg, and the intravenous volume was 5 mL/kg.
Intravenous administration: 2 min, 5 min, 15 min, 30 min, 45 min, 1 h, 1.5 h and 3 h after administration. At the above set time points, 0.3 ml of venous blood was taken from the posterior venous plexus of the rat eye, placed in a heparinized tube, centrifuged at 11,000 rpm for 5 min, then the plasma was separated and stored in a refrigerator at −20° C. All of the rats were fed 2 hours after administration.
After administration, the pharmacokinetic parameters were calculated using a non-compartmental model of WinNonlin 5.3 software (Pharsight, USA).

CC(C)C(O/N=C(\C(=O)N[C@@H]1C(=O)N(OS(=O)(=O)O)C1(C)C)c1csc(N)n1)c1cc(=O)c(O)cn1O (stereo partly drawn) [Compound 12, (3S)-3-((Z)-2-(2-aminothiazol-4-yl)-2-((1-(1,5-dihydroxy-4-oxo-1,4-dihydropyridin-2-yl)methylisopropyloxy)imine)acetamido)-2,2-dimethyl-4-oxoazetidine-1-hydrogen sulfate]
MIC [1]: 0.25 to 1 µg/mL
MIC ([2]; Klebsiella pneumoniae, iron-deficient MH medium (16 mg/L 2,2'-bipyridine), multi-drug resistant clinical isolates (KPC2), read-out: Antibacterial activity MIC, Klebsiella pneumoniae (4 strains)): 0.25 to 0.5 µg/mL
times more effective than BAL30072 in inhibitory activity against Klebsiella pneumonia ([2]; iron-deficient MH medium, from MIC of Table 3): 128-256 times
MIC [3]: 0.03 to 0.25 µg/mL
MIC [4]: 0.5 to 1 µg/mL
MIC ([5]; Klebsiella pneumoniae, multi-drug resistant clinical isolates (KPC2), read-out: Antibacterial activity MIC, Klebsiella pneumoniae (4 strains)): 0.5 to 1 µg/mL
times more effective than BAL30072 in inhibitory activity against Klebsiella pneumoniae ([5]; from MIC of Table 2): 64-128 times
ED50 [6]: 3.37 mg/kg
Clearance CL [7]: 11 ± 5.5 mL/min/kg
Half-life T1/2 [7]: 27 ± 6.6 min
Vd ([7]; male, rat, in vivo, read-out: Apparent Distribution Volume Vss): 0.3 ± 0.03 L/kg
AUC(0-t) ([7]; male, rat, in vivo, read-out: Area Under the Curve AUC0-4): 1730 ± 697 ng·h/mL
MRT ([7]; male, rat, read-out: Residence Time MRT): 30.6 ± 10.8 min
